Reference: patent US11236059B2, “Targeted cytotoxic ratjadone derivatives and conjugates thereof” (HELMHOLTZ-ZENTRUM FUER INFEKTIONSFORSCHUNG GMBH, priority 2017, dated 2022)
Like-named read-outs stand apart in the source and are kept apart here.

Experiments:
[1] = control compounds; cited from earlier work
CRM1 = molecular target: T1, CRM1 (Homo sapiens, UniProt O14980); test: Monitoring export inhibitory activity (translocation biosensor, HeLaRevBio cells); type: cell-based
T1 construct: HeLa cells stably expressing a fluorescent translocation biosensor (HeLaRevBio); endogenous in cells; host or cells: HeLa (HeLaRevBio in A7; HeLa in A8)
Procedure: Export inhibitory ability of compounds was evaluated with the translocation biosensor system. This cellular assay depends on a recombinantly expressed fusion protein consisting of a nuclear localization signal (SV40-NLS), glutathione S-transferase (GST), green fluorescent protein (GFP) and a nuclear export signal (HIV1-RevNES). Due to the two transport signals (NLS/NES), the biosensor is permanently shuttling between nucleus and cytoplasm but resides prominently in the cytoplasm due to a comparatively stronger NES. Export inhibiting compound induce a nuclear accumulation of the GFP-signal^[65,66] Cell lines were maintained as recommended by the American Type Culture Collection in DMEM containing 5% glutamine (Thermo Fisher Scientific, Waltham, USA) supplemented with 10% FBS (Thermo Fisher Scientific, Waltham, USA). For quantifying the nuclear export inhibitory effect, HeLa cells stably expressing a fluorescent translocation biosensor (HeLaRevBio)^[67] were seeded into black 96 well μclear plates (Greiner, Germany). They next day compounds were added covering an appropriate concentration range. After 1h of incubation, cells were fixed in 4% PFA for 10 min and permeabilized with 0.1% Triton X 100 in PBS for 5 min. After washing with PBS nuclei were labeled with Hoechst H33342 (30 min 10 μg/ml). The intracellular distribution of the biosensor-dependent GFP signal was quantitatively evaluated with the high content imaging system ImageXpress MicroXLS (Molecular Devices, Sunnyvale, USA). By using the translocation enhanced application module (Molecular Devices, Sunnyvale, USA) the GFP-intensity was quantified in the cytoplasm and nuclear region. As final readout the difference of Mean Inner and Mean Outer Intensity was calculated. IC50s of nuclear export inhibition were calculated using Sigma Plot with four parameter logistics curve regression (Systat Software GmbH, Erkrath, Germany). […] The following day compounds were added at 125 nM final concentration.

[2] = molecular target: T2, nuclear export receptor Crm1 (Homo sapiens, UniProt O14980); test: Pull-down with ratjadone-biotin, LC-MS proteomic target identification; type: binding; conditions: HeLa cells, 0.1 μg/ml, 5h; streptavidin sepharose; 79 proteins identified
T2 construct: HeLa cells stably expressing a fluorescent translocation biosensor (HeLaRevBio); endogenous in cells; host or cells: HeLa (HeLaRevBio in A7; HeLa in A8)
Procedure: Binding of Ratjadone to the nuclear export receptor Crm1 was shown in a chemical pull down. HeLa cells were treated with ratjadone-biotin, ratjadone or both at 0.1 μg/ml final concentration for 5h. Cells were detached by scraping, washed twice in PBS and lysed in MPER-buffer (Thermo Fisher, Waltham, USA) supplemented with complete protease inhibitor (Roche, Mannheim, Germany). After 5 min incubation on ice the lysate was centrifuged (20 min, 13000 rpm, 4° C.) and the supernatant was incubated with streptavidin sepharose high performance (GE healthcare, Freiburg, Germany) overnight at 4° C. The next day beads were washed twice with PBS and resuspended in elution buffer (Roth) and heated to 95° C. for 10 min. 5% were tested on WesternBlot with a biotin-specific antibody (see FIG. 11). The eluate was given to the proteomics platform (J. Wissing) for identification of proteins.

[3] = test system: KB 3.1 (DSMZ ACC 158) cells; conditions: growth inhibition, 5 days of incubation, MTT assay
[4] = test system: MCF-7 (DSMZ ACC 115) cells; test: cells; type: cell-based
Procedure: (§1) 60 μL of serial dilutions of the test compound were given to 120 μL of suspended cells (50.000/mL) in wells of 96-well plates. After 5 days of incubation growth inhibition (IC50) was determined using an MTT assay.^[64]

[5] = test system: A549 (DSMZ ACC 107) cells; test: cells; type: cell-based
Procedure: as §1

[6] = test system: SKOV-3 (DSMZ ATCC HTB 77) cells; test: cells; type: cell-based
Procedure: as §1

L-929 (DSMZ ACC 2) cells = test: Cell proliferation assay (MTT), L-929; type: cell-based; conditions: read-out: IC50 [nM] L-929
Procedure: as §1

[7] = test system: KB 3.1 (DSMZ ACC 158) cells; test: cells; conditions: Homo sapiens, KB 3-1, 120 h, read-out: IC50 [nM] KB-3.1, growth inhibition, 5 days of incubation, MTT assay
[8] = read-out: IC50 [nM] KB-3.1 (carrier molecules)
[9] = growth inhibition, 5 days of incubation, MTT assay, read-out: IC50 [nM] MCF-7 (carrier molecules)
[10] = growth inhibition, 5 days of incubation, MTT assay, read-out: IC50 [nM] A-549 (carrier molecules)
[11] = growth inhibition, 5 days of incubation, MTT assay, read-out: IC50 [nM] SK-OV-3 (carrier molecules)
[12] = HeLa cells stably expressing translocation biosensor, 1h of incubation, read-out: IC50 [nM] CRM1 (nuclear export inhibition)

T1 sequence (O14980 whole entry): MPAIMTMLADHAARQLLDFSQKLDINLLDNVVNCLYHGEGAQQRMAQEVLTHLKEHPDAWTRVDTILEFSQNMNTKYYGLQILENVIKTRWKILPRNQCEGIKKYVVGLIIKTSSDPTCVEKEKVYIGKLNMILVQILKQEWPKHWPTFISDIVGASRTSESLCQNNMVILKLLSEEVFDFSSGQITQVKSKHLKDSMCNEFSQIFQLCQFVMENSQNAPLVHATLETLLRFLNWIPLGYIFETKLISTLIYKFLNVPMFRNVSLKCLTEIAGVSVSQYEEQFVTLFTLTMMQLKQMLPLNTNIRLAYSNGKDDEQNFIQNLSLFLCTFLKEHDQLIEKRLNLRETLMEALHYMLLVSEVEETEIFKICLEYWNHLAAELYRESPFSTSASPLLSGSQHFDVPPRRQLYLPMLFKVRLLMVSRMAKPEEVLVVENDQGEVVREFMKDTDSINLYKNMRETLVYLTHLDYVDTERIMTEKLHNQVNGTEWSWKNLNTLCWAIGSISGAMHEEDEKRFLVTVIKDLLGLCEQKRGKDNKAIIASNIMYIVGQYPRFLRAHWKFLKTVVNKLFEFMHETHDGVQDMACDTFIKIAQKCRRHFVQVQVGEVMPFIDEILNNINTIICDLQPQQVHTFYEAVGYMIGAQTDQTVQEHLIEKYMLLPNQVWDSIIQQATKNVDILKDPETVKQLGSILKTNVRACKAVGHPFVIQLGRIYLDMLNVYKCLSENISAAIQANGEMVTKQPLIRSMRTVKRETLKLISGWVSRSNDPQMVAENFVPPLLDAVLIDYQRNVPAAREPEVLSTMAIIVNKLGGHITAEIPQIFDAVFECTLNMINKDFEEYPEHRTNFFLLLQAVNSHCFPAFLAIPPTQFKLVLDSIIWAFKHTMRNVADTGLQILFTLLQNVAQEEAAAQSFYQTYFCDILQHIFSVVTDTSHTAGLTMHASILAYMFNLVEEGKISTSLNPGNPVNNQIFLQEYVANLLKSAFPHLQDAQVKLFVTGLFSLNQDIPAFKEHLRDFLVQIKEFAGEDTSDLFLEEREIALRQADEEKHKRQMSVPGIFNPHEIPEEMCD
T2 sequence (O14980 whole entry): as above

CCCOc1cc(N)ccc1C(=O)OCCN(CC)CC [propoxycaine]
stability in mouse plasma [1]: unstable

C/C=C/[C@@H]1O[C@H]([C@H](/C=C/C=C(\C)C[C@@H](C)/C=C(C)\C=C\[C@H]2CC=CC(=O)O2)NC(=O)OCCc2cn(CCOCCOCCOCCNC(=O)CCCC[C@@H]3SC[C@@H]4NC(=O)N[C@@H]43)nn2)C[C@@H](O)[C@@H]1C [Biotin-PEG3-16S-Aminoratjadone, 2-(1-(13-oxo-17-((3aS,4S,6aR)-2-oxohexahydro-1H-thieno[3,4-d]imidazol-4-yl)-3,6,9-trioxa-12-azaheptadecyl)-1H-1,2,3-triazol-4-yl)ethyl ((1S,2E,4E,7R,8Z,10E)-1-((2S,4R,5S,6S)-4-hydroxy-5-methyl-6-((E)-prop-1-en-1-yl)tetrahydro-2H-pyran-2-yl)-5,7,9-trimethyl-11-((R)-6-oxo-3,6-dihydro-2H-pyran-2-yl)undeca-2,4,8,10-tetraen-1-yl)carbamate]
IC50 (CRM1): 152 nM | proteins identified in the pull-down eluate [2]: CRM1 having the highest area

CC(C)C[C@H](NC(=O)[C@@H](CCCN=[N+]=[N-])NC(=O)[C@H](Cc1ccc(O)cc1)NC(=O)[C@H](CO)NC(=O)[C@H](Cc1c[nH]c2ccccc12)NC(=O)[C@H](Cc1c[nH]cn1)NC(=O)[C@@H]1CCC(=O)N1)C(=O)N[C@@H](CCCNC(=N)N)C(=O)N1CCC[C@H]1C(=O)NNC(N)=O [D-N3-Orn-Goserellin, (S)—N-((6S,9S,12R,15S,18S,21S,24S)-21-((1H-indol-3-yl)methyl)-1-amino-12-(3-azidopropyl)-6-((S)-2-(2-carbamoylhydrazine-1-carbonyl)pyrrolidine-1-carbonyl)-15-(4-hydroxybenzyl)-18-(hydroxymethyl)-25-(1H-imidazol-4-yl)-1-imino-9-isobutyl-8,11,14,17,20,23-hexaoxo-2,7,10,13,16,19,22-heptaazapentacosan-24-yl)-5-oxopyrrolidine-2-carboxamide]
IC50 [3, 8]: > 663000 nM | IC50 [4, 9]: > 663000 nM | IC50 [5, 10]: > 663000 nM | IC50 [6, 11]: > 663000 nM

C/C=C/[C@@H]1O[C@H](C(=O)/C=C/C=C(\C)C[C@@H](C)/C=C(C)\C=C\[C@H]2CC=CC(=O)O2)C[C@@H](O)[C@@H]1C [16-Oxo-Ratjadone 8, (R)-6-((R,1E,3Z,7E,9E)-11-((2S,4R,5S,6S)-4-hydroxy-5-methyl-6-((E)-prop-1-en-1-yl)tetrahydro-2H-pyran-2-yl)-3,5,7-trimethyl-11-oxoundeca-1,3,7,9-tetraen-1-yl)-5,6-dihydro-2H-pyran-2-one]
IC50 (L-929 (DSMZ ACC 2) cells; Mus musculus, L929, 120 h): 12.6 nM | IC50 [7]: 2.57 nM | IC50 (CRM1; [12]): 52.5 nM | IC50 ([4]; Homo sapiens, MCF7, 120 h, read-out: IC50 [nM] MCF-7, growth inhibition, 5 days of incubation, MTT assay): 0.22 nM | IC50 ([5]; Homo sapiens, A549, 120 h, read-out: IC50 [nM] A-549, growth inhibition, 5 days of incubation, MTT assay): 1.76 nM | IC50 ([6]; Homo sapiens, SK-OV-3, 120 h, read-out: IC50 [nM] SK-OV-3, growth inhibition, 5 days of incubation, MTT assay): 0.24 nM

C/C=C/[C@@H]1O[C@H]([C@H](O)/C=C/C=C(\C)C[C@@H](C)/C=C(C)\C=C\[C@H]2CC=CC(=O)O2)CC(=O)[C@@H]1C [19-Oxo-Ratjadone 9, (R)-6-((1E,3Z,5R,7E,9E,9E,11R)-11-hydroxy-3,5,7-trimethyl-11-((2S,5R,6S)-5-methyl-4-oxo-6-((E)-prop-1-en-1-yl)tetrahydro-2H-pyran-2-yl)undeca-1,3,7,9-tetraen-1-yl)-5,6-dihydro-2H-pyran-2-one]
IC50 (L-929 (DSMZ ACC 2) cells; growth inhibition, 5 days of incubation, MTT assay): 24.3 nM | IC50 ([3]; read-out: IC50 [nM] KB-3.1): 0.36 nM | IC50 (CRM1; [12]): 13.3 nM | IC50 ([4]; growth inhibition, 5 days of incubation, MTT assay, read-out: IC50 [nM] MCF-7): 0.48 nM | IC50 ([5]; growth inhibition, 5 days of incubation, MTT assay, read-out: IC50 [nM] A-549): 0.1 nM | IC50 ([6]; growth inhibition, 5 days of incubation, MTT assay, read-out: IC50 [nM] SK-OV-3): 0.16 nM

CCN(CC)CCOC(=O)c1ccc(N)cc1 [Procaine, procaine]
stability in mouse plasma [1]: unstable

CC(C)C[C@H](NC(=O)CNC(=O)[C@H](Cc1ccc(O)cc1)NC(=O)[C@H](CO)NC(=O)[C@H](Cc1c[nH]c2ccccc12)NC(=O)[C@H](Cc1c[nH]cn1)NC(=O)[C@@H]1CCC(=O)N1)C(=O)N[C@@H](CCCNC(=N)N)C(=O)N1CCC[C@H]1C(=O)NCC(N)=O [LHRH, (S)—N-(2-amino-2-oxoethyl)-1-(((S)-5-oxopyrrolidine-2-carbonyl)-L-histidyl-L-tryptophyl-L-seryl-L-tyrosylglycyl-L-leucyl-L-arginyl)pyrrolidine-2-carboxamide, reference compound]
IC50 [3, 8]: > 405000 nM | IC50 [4, 9]: > 405000 nM | IC50 [5, 10]: > 405000 nM | IC50 [6, 11]: > 405000 nM
